According to US20120181173A1, “ELECT[…] FOR THE DETECTION OF ANALYTES IN LIQUID MEDIA” (priority 2009, published 2012):
Values joined by “and” are separate entries in the source; they are usually repeats but may differ in a detail not shown here. Equal entries are not always repeated.

Legend:
[1] = target: T1, acetylcholinesterase enzyme (Electrophorus electricus, UniProt O42275); assay: Inhibition of acetylcholinesterase by chlorpyrifos oxon in the Example 1 sensor (graphite; PEDOT layer with PVA layer, d1); conditions: Example 1 sensor (d1), 100 mV
T1 sequence (O42275 24-633): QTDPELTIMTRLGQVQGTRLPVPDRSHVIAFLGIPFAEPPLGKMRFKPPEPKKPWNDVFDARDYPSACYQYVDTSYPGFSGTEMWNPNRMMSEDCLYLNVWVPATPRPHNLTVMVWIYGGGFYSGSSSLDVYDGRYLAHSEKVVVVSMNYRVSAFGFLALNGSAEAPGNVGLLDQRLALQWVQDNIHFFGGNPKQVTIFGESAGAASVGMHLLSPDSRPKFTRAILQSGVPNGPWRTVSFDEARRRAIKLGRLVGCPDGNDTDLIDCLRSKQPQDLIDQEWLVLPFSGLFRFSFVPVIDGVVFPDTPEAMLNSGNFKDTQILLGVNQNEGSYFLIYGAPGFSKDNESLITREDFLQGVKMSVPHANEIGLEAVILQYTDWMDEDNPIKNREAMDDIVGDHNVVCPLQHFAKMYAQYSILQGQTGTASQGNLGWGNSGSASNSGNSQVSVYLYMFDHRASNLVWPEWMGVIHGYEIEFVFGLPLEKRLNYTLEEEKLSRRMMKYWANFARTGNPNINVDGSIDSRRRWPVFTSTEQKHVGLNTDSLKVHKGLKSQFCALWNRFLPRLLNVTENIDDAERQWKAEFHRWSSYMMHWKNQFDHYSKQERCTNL

[2] = target: T1, acetylcholinesterase enzyme; assay: Inhibition of acetylcholinesterase by chlorpyrifos oxon in the Example 2 sensor (graphite; PEDOT and PVA conductive gel, d2); conditions: Example 2 sensor (d2), 100 mV
[3] = target: T1, acetylcholinesterase enzyme; assay: Inhibition of acetylcholinesterase by chlorpyrifos oxon in the Example 4 sensor (silver intermediate layer; graphite; PEDOT layer with PVA layer, d1); conditions: Example 4 sensor (silver + d1), 100 mV
[4] = target: T1, acetylcholinesterase enzyme; assay: Inhibition of acetylcholinesterase by chlorpyrifos oxon in the Example 3 sensor (graphite; cobalt phthalocyanine intermediate layer; PEDOT and PVA, d2); conditions: Example 3 sensor (CoPh + d2), 100 mV

chlorpyrifos oxon was tested, and the “% of inhibition in the presence of pesticide” value (shortened to “% of inhibition”) ([1]; chlorpyrifos oxon 1 · 10^−9 M) was 46.82%, the “% of inhibition” value ([1]; chlorpyrifos oxon 2 · 10^−10 M) was 7% and 7.21% and the “% of inhibition” value ([1]; chlorpyrifos oxon 3 · 10^−9 M) was 69.20%. For the same substance, the “% of inhibition” value ([1]; chlorpyrifos oxon 3 · 10^−10 M) was 16.11%, the “% of inhibition” value ([1]; chlorpyrifos oxon 4 · 10^−10 M) was 22.41% and the “% of inhibition” value ([1]; chlorpyrifos oxon 5 · 10^−10 M) was 27.09%. The “% of inhibition” value ([1]; chlorpyrifos oxon 9 · 10^−10 M) was 44.54%, the “% of inhibition” value ([2]; chlorpyrifos oxon 1 · 10^−9 M) was 41.71% and the “% of inhibition” value ([2]; chlorpyrifos oxon 3 · 10^−9 M) was 61.15%. For the same substance, the “% of inhibition” value ([2]; chlorpyrifos oxon 3 · 10^−10 M) was 10% and 10.09%, the “% of inhibition” value ([2]; chlorpyrifos oxon 4 · 10^−10 M) was 15.31% and the “% of inhibition” value ([2]; chlorpyrifos oxon 5 · 10^−10 M) was 22.19%. For the same substance, the “% of inhibition” value ([2]; chlorpyrifos oxon 9 · 10^−10 M) was 39.75%, the “% of inhibition” value ([3]; chlorpyrifos oxon 1 · 10^−9 M) was 49.50% and the “% of inhibition” value ([3]; chlorpyrifos oxon 2 · 10^−10 M) was 8% and 8.28%. The “% of inhibition” value ([3]; chlorpyrifos oxon 3 · 10^−9 M) was 72.23%, the “% of inhibition” value ([3]; chlorpyrifos oxon 3 · 10^−10 M) was 19.14% and the “% of inhibition” value ([3]; chlorpyrifos oxon 4 · 10^−10 M) was 24.51%. For the same substance, the “% of inhibition” value ([3]; chlorpyrifos oxon 5 · 10^−10 M) was 30.10%, the “% of inhibition” value ([3]; chlorpyrifos oxon 9 · 10^−10 M) was 47.55% and the “% of inhibition” value ([4]; chlorpyrifos oxon 1 · 10^−9 M) was 52.36%. The “% of inhibition” value ([4]; chlorpyrifos oxon 2 · 10^−10 M) was 9.82%, the “% of inhibition” value ([4]; chlorpyrifos oxon 3 · 10^−9 M) was 74.80% and the “% of inhibition” value ([4]; chlorpyrifos oxon 3 · 10^−10 M) was 10.70%. For the same substance, the “% of inhibition” value ([4]; chlorpyrifos oxon 4 · 10^−10 M) was 32.51%, the “% of inhibition” value ([4]; chlorpyrifos oxon 5 · 10^−10 M) was 31.46% and the “% of inhibition” value ([4]; chlorpyrifos oxon 9 · 10^−10 M) was 49.18%.
